Earlier results on one molecule are cited in patent US8648072B2, “Cannabinoid receptor antagonists/inverse agonists useful for treating metabolic disorders, including obesity and diabetes” (Jenrin Discovery, Inc., priority 2009, dated 2014).

This series concerns patients with type 2 diabetes. To be noted: after six months of treatment; baseline value of 7.9; placebo group 0.3%.

With `Cc1c(C(=O)NN2CCCCC2)nn(-c2ccc(Cl)cc2Cl)c1-c1ccc(Cl)cc1` [rimonabant], the HbA1c levels lowered is reported as 0.8%.
